Patent US6602824B1, “Herbicidal composition and a method of using a naturally-occurring organic compound as a herbicide” (Greener Pastures Development Corp., priority 1999, dated 2003)
Structures can show the parent of a compound that is named as a salt.

What was measured:
[1] = test system: rats; assay: LD50, single oral dose administered to rats; conditions: orally administered to rats; versus sodium chloride
[2] = test system: rats; conditions: orally administered to rats; cited from earlier work

Compound: C[N+](C)(C)CC(=O)[O-] [glycine betaine, 1-carboxy-N,N,N-trimethylmethanaminium inner salt]
- toxicity relative to ordinary table salt, as reflected by the oral rat LD50 [1]: more than three times less toxic
- LD50 [2]: about 11,204 mg per kilogram of rat body we
